Results reported in ChEMBL document CHEMBL4017452, “Novel boronic acid derivatives of bis(indolyl) methane as anti-MRSA agents” (2017).
In brackets after ≈: the same amount, converted by molar mass. Activity calls are given as the source filed them. The calls are words filed in the database; no cut-off is given here.

Legend:
Staphylococcus aureus [1] = test: Antibacterial activity against methicillin-resistant Staphylococcus aureus clinical isolates after 18 hrs by CLSI method; type: functional
Staphylococcus aureus [2] = test: Bactericidal activity against methicillin-resistant Staphylococcus aureus at 0.8 to 4 ug/ml; type: functional
Staphylococcus aureus [3] = test: Bactericidal activity against methicillin-resistant Staphylococcus aureus at 1.6 to 8 ug/ml; type: functional
Staphylococcus aureus [4] = test: Binding affinity to methicillin-resistant Staphylococcus aureus [(Ac)2-L-Lys-D-Ala-/-D-Ala] assessed as change in entropy by isothermal titration calorimetric method
Staphylococcus aureus [5] = test: Binding affinity to methicillin-resistant Staphylococcus aureus [(Ac)2-L-Lys-D-Ala-/-D-Ala] assessed as change in enthalpy by isothermal titration calorimetric method
Staphylococcus aureus [6] = test: Binding affinity to methicillin-resistant Staphylococcus aureus [(Ac)2-L-Lys-D-Ala-/-D-Ala] by isothermal titration calorimetric method

| Structure (SMILES) | MIC (Staphylococcus aureus [1]) [µg/mL] | also measured |
| --- | --- | --- |
| O=[N+]([O-])c1ccc(N/N=C/c2ccc(C(c3c[nH]c4ccccc34)c3c[nH]c4ccccc34)cc2)c([N+](=O)[O-])c1 | 500 (≈ 942 µM) | – |
| COc1ccc2[nH]cc(C(c3ccccc3)c3c[nH]c4ccc(OC)cc34)c2c1 | > 1000 | – |
| Cc1ccc(C(c2c[nH]c3ccc(Br)cc23)c2c[nH]c3ccc(Br)cc23)cc1 | 62.5 (≈ 126 µM) | – |
| Cc1ccc(C(c2c[nH]c3ccccc23)c2c[nH]c3ccccc23)cc1 | > 1000 | – |
| OB(O)c1ccccc1C(c1c[nH]c2ccccc12)c1c[nH]c2ccccc12 | 3.91 (≈ 10.7 µM) | Activity (Staphylococcus aureus [2]): Active |
| O=[N+]([O-])c1ccc2[nH]cc(C(c3ccc(C(c4c[nH]c5ccc([N+](=O)[O-])cc45)c4c[nH]c5ccc([N+](=O)[O-])cc45)cc3)c3c[nH]c4ccc([N+](=O)[O-])cc34)c2c1 | 500 (≈ 670 µM) | – |
| O=[N+]([O-])c1ccc2[nH]cc(C(c3ccc(Br)cc3)c3c[nH]c4ccc([N+](=O)[O-])cc34)c2c1 | 500 (≈ 1020 µM) | – |
| Brc1ccc2[nH]cc(C(c3ccccc3)c3c[nH]c4ccc(Br)cc34)c2c1 | > 1000 | – |
| COc1ccc2[nH]cc(C(c3ccc(C(c4c[nH]c5ccc(OC)cc45)c4c[nH]c5ccc(OC)cc45)cc3)c3c[nH]c4ccc(OC)cc34)c2c1 | 500 (≈ 728 µM) | – |
| COc1ccc2[nH]cc(C(c3ccc([N+](=O)[O-])cc3)c3c[nH]c4ccc(OC)cc34)c2c1 | > 1000 | – |
| CN(C)c1ccc(C(c2c[nH]c3ccccc23)c2c[nH]c3ccccc23)cc1 | > 1000 | – |
| COc1ccc(C(c2c[nH]c3ccc([N+](=O)[O-])cc23)c2c[nH]c3ccc([N+](=O)[O-])cc23)cc1 | > 1000 | – |
| COc1ccc(C(c2c[nH]c3ccc(OC)cc23)c2c[nH]c3ccc(OC)cc23)cc1 | > 1000 | – |
| c1ccc2c(C(c3ccc(C(c4c[nH]c5ccccc45)c4c[nH]c5ccccc45)cc3)c3c[nH]c4ccccc34)c[nH]c2c1 | 1000 (≈ 1760 µM) | – |
| COc1ccc2[nH]cc(C(c3ccc(Br)cc3)c3c[nH]c4ccc(OC)cc34)c2c1 | 62.5 (≈ 135 µM) | – |
| Brc1ccc(C(c2c[nH]c3ccc(Br)cc23)c2c[nH]c3ccc(Br)cc23)cc1 | 31.2 (≈ 55.9 µM) | – |

| Structure (SMILES) | MIC (Staphylococcus aureus [1]) [µg/mL] | also measured |
| --- | --- | --- |
| O=[N+]([O-])c1ccc(C(c2c[nH]c3ccc([N+](=O)[O-])cc23)c2c[nH]c3ccc([N+](=O)[O-])cc23)cc1 | 31.2 (≈ 68.3 µM) | – |
| OB(O)c1ccc(C(c2c[nH]c3ccccc23)c2c[nH]c3ccccc23)cc1 | 7.81 (≈ 21.3 µM) | Activity (Staphylococcus aureus [3]): Active |
| c1ccc(C(c2c[nH]c3ccccc23)c2c[nH]c3ccccc23)cc1 | > 1000 | – |
| OB(O)c1cccc(C(c2c[nH]c3ccccc23)c2c[nH]c3ccccc23)c1 | 3.91 (≈ 10.7 µM) | deltaS (Staphylococcus aureus [4]): -59.5 cal/mol/deg; deltaH (Staphylococcus aureus [5]): -0.0494 kcal/mol; K (Staphylococcus aureus [6]): 242 M⁻¹; Activity (Staphylococcus aureus [2]): Active |
| Brc1ccc(C(c2c[nH]c3ccccc23)c2c[nH]c3ccccc23)cc1 | 500 (≈ 1250 µM) | – |
| COc1ccc2[nH]cc(C(c3ccc(C)cc3)c3c[nH]c4ccc(OC)cc34)c2c1 | > 1000 | – |
| O=[N+]([O-])c1ccc(C(c2c[nH]c3ccc(Br)cc23)c2c[nH]c3ccc(Br)cc23)cc1 | 15.6 (≈ 29.7 µM) | – |
| COc1ccc2[nH]cc(C(c3ccc(N(C)C)cc3)c3c[nH]c4ccc(OC)cc34)c2c1 | > 1000 | – |
| Cc1ccc(C(c2c[nH]c3ccc([N+](=O)[O-])cc23)c2c[nH]c3ccc([N+](=O)[O-])cc23)cc1 | > 1000 | – |
| O=[N+]([O-])c1ccccc1C(c1c[nH]c2ccccc12)c1c[nH]c2ccccc12 | 500 (≈ 1360 µM) | – |
| COc1ccc2[nH]cc(C(c3ccccc3[N+](=O)[O-])c3c[nH]c4ccc(OC)cc34)c2c1 | 500 (≈ 1170 µM) | – |
| O=[N+]([O-])c1ccc(C(c2c[nH]c3ccccc23)c2c[nH]c3ccccc23)cc1 | 500 (≈ 1360 µM) | – |
| O=Cc1ccc(C(c2c[nH]c3ccccc23)c2c[nH]c3ccccc23)cc1 | 500 (≈ 1430 µM) | – |
| COc1ccc2[nH]cc(C(c3ccc(/C=N/Nc4ccc([N+](=O)[O-])cc4[N+](=O)[O-])cc3)c3c[nH]c4ccc(OC)cc34)c2c1 | 250 (≈ 423 µM) | – |
| O=[N+]([O-])c1cccc(C(c2c[nH]c3ccccc23)c2c[nH]c3ccccc23)c1 | 15.6 (≈ 42.5 µM) | – |
